Data reported in patent US11504367B2, “Compounds and methods for treating oxalate-related diseases” (OxaluRx, Inc., priority 2019, dated 2022).
pIC50: −log10 of the molar value.

Tests used:
[1] = target: recombinant full-length human hydroxyacid oxidase 1 (HAO1), the equivalents of hGOX (Homo sapiens (Human), UniProt Q9UJM8); experiment: In-vitro human glycolate oxidase (hGOX) assay (Amplex red fluorescence); type: biochemical; details: 6 nM recombinant human GO, 85 μM glycolate, 10 min preincubation
recombinant full-length human hydroxyacid oxidase 1 (HAO1), the equivalents of hGOX, sequence (Q9UJM8 whole entry): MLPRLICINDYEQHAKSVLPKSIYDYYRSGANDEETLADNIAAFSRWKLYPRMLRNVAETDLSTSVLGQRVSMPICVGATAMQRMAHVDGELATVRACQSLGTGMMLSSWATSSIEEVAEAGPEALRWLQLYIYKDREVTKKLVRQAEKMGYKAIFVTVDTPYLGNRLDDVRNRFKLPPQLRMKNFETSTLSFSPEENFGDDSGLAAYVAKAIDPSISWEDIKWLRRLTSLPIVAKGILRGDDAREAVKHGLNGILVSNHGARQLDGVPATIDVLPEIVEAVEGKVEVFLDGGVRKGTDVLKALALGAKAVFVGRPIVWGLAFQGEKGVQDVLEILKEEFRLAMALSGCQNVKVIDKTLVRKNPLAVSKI
Summary of the method: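 Activity was read as Amplex Red fluorescence (560/590 nm), with 50 μM reagent added after a 10 min room-temperature incubation. The enzyme, full-length human HAO1, was in pH 7.4 HEPES buffer containing KCl, NaCl, MgCl2 and 0.01% Triton X-100.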

[2] = In-vivo pharmacokinetic evaluation (exposure, AUC fold-over Example 1); details: male CD-1 mice, 10 mg/kg oral gavage in 20% (2-Hydroxypropyl)-β-cyclodextrin, plasma at 0.5, 2 and 6 hours post-dose; AUC expressed as fold-over Example 1
Protocol: In-vivo exposure of test compounds was determined in 5-6 week old male CD-1 mice. Mice (n=2/compound) received 10 mg/kg of each compound formulated in 20% (2-Hydroxypropyl)-β-cyclodextrin (10 μL/g) by oral gavage. At 0.5 hours, 2 hours, and 6 hours post-dose, blood samples were collected from the submandibular vein using EDTA as an anticoagulant and stored on ice. Plasma samples were obtained by centrifugation at 4° C. and were analyzed immediately or stored at −20° C. until analysis. Compounds were extracted from mouse plasma with acetonitrile and quantified by LC-MS-MS in the negative ion mode using a standard curve.

Caco-2 cell monolayers = experiment: Alternate Caco-2 permeability assay; type: in vitro ADME; details: alternate Caco-2 assay, 10 μM, 2 hours
Protocol: A working solution for the Caco-2 permeability assay was prepared by diluting test compound stock solutions (2 mM in DMSO) with HBSS (10 mM, pH 7.4) to 10 μM working solution. Metoprolol, erythromycin, and cimetidine were used as the control compounds.
To determine the rate of drug transport in the apical-to-basolateral direction (A-B), 125 μL of the working solution was added to the Transwell insert (apical compartment). 50 μL of each sample was immediately transferred from the apical compartment to 200 μL of acetonitrile containing internal standards (100 nM alprazolam, 200 nM caffeine, and 100 nM tolbutamide) in a new 96-well plate as the initial donor sample (A-B). Samples were vortexed at 1000 rpm for 10 minutes, and the wells in the receiver plate (basolateral compartment) were subsequently filled with 235 μL of transport buffer. Plates were incubated at 37° C. for 2 hours.
To determine the rate of drug transport in the basolateral-to-apical direction (B-A), 285 μL of the working solution was added to the receiver plate wells (basolateral compartment). 50 μL of each sample was transferred immediately from the basolateral compartment to 200 μL of acetonitrile containing internal standards (100 nM alprazolam, 200 nM Caffeine, and 100 nM tolbutamide) in a new 96-well plate as the initial donor sample (B-A). Samples were vortexed at 1000 rpm for 10 minutes, and 75 μL of transport buffer was added to the Transwell insert (apical compartment). Plates were incubated at 37° C. for 2 hours. […]
To determine the Lucifer Yellow leakage after 2 hour transport period, the stock solution of Lucifer yellow was prepared in DMSO and diluted with HBSS (10 mM HEPES, pH 7.4) to reach the final concentration of 100 μM. […] The Lucifer Yellow fluorescence (to monitor monolayer integrity) signal was measured in a fluorescence plate reader at 480 nm excitation and 530 nm emission.

[3] = Alternate liver microsome metabolic stability assay; type: in vitro ADME, human, monkey, dog, rat, mouse; details: liver microsomes, 1 μM, at 30 minutes, all species tested
Protocol: Metabolic Stability. For evaluating the metabolic stability in liver microsomal preparations, two buffers were prepared. Buffer A consisted of 10 mM NADPH and 0.5 mg/mL microsomes in 100 mM of phosphate buffer. Buffer B consisted of 0.5 mg/mL microsomes in 100 mM of phosphate buffer. The reference compound (verapamil) and test compound were prepared as 100 μM DMSO stocks. The source of liver microsomes was as follows: Human (BD Gentest, #452117), monkey (RILD, #LM-SXH-02M), dog (BD, #452601), Rat (BioIVT, #M00001), and mouse (BioIVT, #M00501).
The reaction was started by adding 2.5 μL of 100 μM control compound or test compound solutions to 216.25 μL of prewarmed (37° C.) assay buffer. The final concentration of the control compound and test compounds were 1 μM. […] The reaction was stopped by adding 5 volumes of cold acetonitrile with internal standards (100 nM alprazolam, 200 nM caffeine, and 100 nM tolbutamide). Samples were centrifuged at 3,220 g for 30 minutes. An aliquot of 100 μL of the supernatant was mixed with 100 μL of ultra-pure water and then used for LC-MS/MS analysis.

[4] = Alternate plasma stability assay; type: in vitro ADME, human, dog, mouse; details: 5 μM
Protocol: Plasma stability. Stock compounds were prepared for testing the stability in human (BioIVT, #BRH1589665), dog (BioIVT, #BGL102122) and mouse (BioIVT, #MSE37887) plasma. 1 mM test compound working solution was prepared in DMSO. A one mM propantheline working solution was prepared in acetonitrile. Propantheline was used as a positive control for human, dog, and mouse plasma in this assay.
Plasma (398 μL) for each compound was added into an incubation plate, and the plate was pre-warmed for 15 minutes at 37° C. The reaction was initiated upon addition of 2 μL of 1 mM working solution (test compounds or control compound) to the plasma to reach a final concentration of 5 μM. The reaction was incubated at 37° C. Aliquots of 50 μL were taken from the reaction samples at 0 and 60 minutes. Adding 450 μL cold acetonitrile containing internal standards stopped the reaction. Once the reaction was stopped, the samples were vortexed for 10 minutes, followed by centrifugation at 3,220 g for 40 minutes to precipitate proteins. The supernatant (100 μL) was transferred to a new plate and diluted with ultrapure water according to the LC-MS signal response and peak shape. Samples were analyzed by LC-MS/MS.

[5] = target: glycolate oxidase (GOX) in HepaRG-CAR cells (Homo sapiens (Human), UniProt Q9UJM8); experiment: HepaRG-CAR cell-based assay for quantitation of glycolate oxidase inhibition (cellular glycolate flux, GC-MS)
glycolate oxidase (GOX) in HepaRG-CAR cells, sequence (Q9UJM8 whole entry): as above

[6] = test system: alanine-glyoxylate aminotransferase (AGXT) knockout mice; experiment: In vivo efficacy in Agxt−/− mouse model of primary hyperoxaluria 1 (urine oxalate and glycolate)
Protocol: The in-vivo activity of test compounds was evaluated using alanine-glyoxylate aminotransferase (AGXT) knockout mice from Jackson Laboratory (Bar Harbor, Me.), as reported by Martin-Higueras et al., Molecular Therapy, vol. 24 no. 4, 719-725, 2016. Ten to 15-week-old male AGXT knock-out mice (Agxt−/−) were used to assess the in-vivo activity of test compounds on urinary oxalate and glycolate.
Male Agxt−/− mice were housed under standard conditions (five animals per cage) and allowed free access to food and water. Upon study initiation, animals were treated with test compounds by oral gavage formulated in 20% (2-hydroxypropyl)-β-cyclodextrin (10 μL/g). […]
Urine oxalate was measured using a commercially available clinical oxalate oxidase assay (Trinity Biotech, Wicklow, Ireland) following the manufacturer's instructions.
Plasma and urine glycolate were determined by methods described in Dutta et al., “Inhibition of Glycolate Oxidase with Dicer-substrate siRNA Reduces Calcium Oxalate Deposition in a Mouse Model of Primary Hyperoxaluria Type 1.” Mol Ther., 24(4) 770-778 (2016) using liquid chromatography combined with mass spectrometry detection (LC/MS) on a triple-quadrupole instrument by electrospray ionization and multiple reaction monitoring. […] A two-step protein precipitation determined plasma glycolate. […]

| Compound | pIC50 [1] | AUC Fold over Ex. 1 [2] | Papp Efflux Ratio (Caco-2 cell monolayers) | compound remained intact [3] [%] | plasma stability half-life (compared with Example 1) [4] | pIC50 [5] | inhibition of urine oxalate ([6]; compound 1 dosed at 10 and 30 mg/kg, vs vehicle-treated control) | urine glycolate change ([6]; compound 1 dosed twice daily at 10 and 30 mg/kg) |
| --- | --- | --- | --- | --- | --- | --- | --- | --- |
| CS(=O)(=O)c1ccc(C#Cc2cccc(Oc3[nH]nnc3C(=O)O)c2)cc1 [Example 255, 5-(3-(2-(4-(Methylsulfonyl)phenyl)ethynyl)phenoxy)-1H-1,2,3-triazole-4-carboxylic Acid] | 8.10 | 0.1 |  | 100 | similarly long or longer half-lives |  |  |  |
| C#Cc1cccc(Oc2[nH]nnc2C(=O)O)c1 [Example 1, 5-(3-Ethynylphenoxy)-1H-1,2,3-triazole-4-carboxylic Acid] | 7.68 | 1.0 |  |  |  | 5.60 | about 30% | concomitant increase in urine glycolate |
| CS(=O)(=O)c1ccc(C#Cc2ccc(Oc3[nH]nnc3C(=O)O)cc2)cc1 [Example 190, 5-(4-(2-(4-(Methylsulfonyl)phenyl)ethynyl)phenoxy)-1H-1,2,3-triazole-4-carboxylic Acid] | 8.52 |  |  |  | similarly long or longer half-lives |  |  |  |

Further lines, with some results ahead:

| pIC50 [1] | AUC Fold over Ex. 1 [2] | Papp Efflux Ratio (Caco-2 cell monolayers) | compound remained intact [3] [%] | plasma stability half-life (compared with Example 1) [4] | Compound | pIC50 [5] | inhibition of urine oxalate ([6]; compound 1 dosed at 10 and 30 mg/kg, vs vehicle-treated control) | urine glycolate change ([6]; compound 1 dosed twice daily at 10 and 30 mg/kg) |
| --- | --- | --- | --- | --- | --- | --- | --- | --- |
| 8.22 | 7.4 | single digits |  |  | O=C(O)c1nn[nH]c1Sc1cccc(C#CCC2CC2)c1 [Example 356, 5-(3-(3-Cyclopropylprop-1-ynyl)phenylthio)-1H-1,2,3-triazole-4-carboxylic Acid] |  |  |  |
| 8.00 | 4.3 | single digits | 100 | similarly long or longer half-lives | CC(C)CC#Cc1cccc(Oc2[nH]nnc2C(=O)O)c1 [Example 343, 5-(3-(4-Methylpent-1-ynyl)phenoxy)-1H-1,2,3-triazole-4-carboxylic Acid] |  |  |  |
| 7.89 | 4.1 | single digits | 100 | similarly long or longer half-lives | O=C(O)c1nn[nH]c1Oc1cccc(C#CCC2CC2)c1 [Example 302, 5-(3-(3-Cyclopropylprop-1-ynyl)phenoxy)-1H-1,2,3-triazole-4-carboxylic Acid] |  |  |  |
| 9.00 | 0.0 |  |  |  | O=C(O)c1nn[nH]c1Oc1cccc(C#Cc2ccc3[nH]ncc3c2)c1 [Example 307, 5-(3-(2-(1H-Indazol-5-yl)ethynyl)phenoxy)-1H-1,2,3-triazole-4-carboxylic Acid] |  |  |  |
